In patent EP1803452A1, “ESTER DERIVATIVE AND PHARMACEUTICAL USE THEREOF” (Japan Tobacco, Inc., priority 2004, dated 2006):

Experiments:
[1] = Metabolic stability test in liver S9; assay type: in vitro ADME; conditions: pH 7.4, human liver S9 2 mg protein/mL, LC/MS; for remaining at 10 min: unchanged form after 10 minutes at 37°C, read-out: Remaining rate in human liver S9 (%/10min); for remaining at 1 h: unchanged form after 60 minutes at 37°C, read-out: Remaining rate in human liver S9 (%/60min)
In short: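 Compound from DMSO solution was incubated at 37°C with human liver S9 (final 2 mg protein/mL) in 100 mM potassium phosphate pH 7.4 with an NADPH-regenerating system for 0, 10 and 60 minutes. Reactions were stopped with acetonitrile/0.1% formic acid. Unchanged compound was measured by LC/MS as remaining rate (%) relative to zero time.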

[2] = Metabolic stability test in plasma; assay type: in vitro ADME, human; conditions: LC/MS; for remaining at 10 min: unchanged form after 10 minutes at 37°C in human plasma, read-out: Remaining rate in human plasma (%/10min); for remaining at 1 h: unchanged form after 60 minutes at 37°C in human plasma, read-out: Remaining rate in human plasma (%/60min)
In short: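 Remaining rate (%) versus zero time was derived from LC/MS measurement of parent compound after centrifugation. Plasma from human, mouse and hamster received DMSO-dissolved compound and was held at 37°C for 0, 10 or 60 minutes before acetonitrile containing formic acid (final 0.1%) stopped the reaction.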

[3] = Stability test in buffer (pH 7.4); assay type: physicochemical; conditions: phosphate buffer/acetonitrile 7:3, 100 mM potassium phosphate buffer (pH 7.4) and acetonitrile 7:3 (v/v), LC/MS; for remaining at 10 min: 10 minutes at 37°C, read-out: Buf. remaining rate (%/10min); for remaining at 1 h: 60 minutes at 37°C, read-out: Buf. remaining rate (%/60min)
In short: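 Parent compound measured by LC/MS after 0, 10 or 60 min at 37°C in a 7:3 (v/v) mix of 100 mM potassium phosphate buffer and acetonitrile, with the reaction stopped by acetonitrile plus formic acid (final 0.1%). Percentage remaining is expressed relative to the zero-time amount.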

| remaining at 10 min [1] [%] | remaining at 1 h [1] [%] | remaining at 10 min [2] [%] | remaining at 1 h [2] [%] | remaining at 10 min [3] [%] | remaining at 1 h [3] [%] | SMILES |
| --- | --- | --- | --- | --- | --- | --- |
| 6 | 0 | 5 | 0 | 98 | 99 | CN(C)C(=O)c1cc(CCCC(=O)Oc2ccc(C(=O)OCc3ccsc3)cc2)ccc1NC(=O)c1ccccc1-c1ccc(C(F)(F)F)cc1 [Compound 1-99, 4-[4-(3-dimethylcarbamoyl-4-{(4'-trifluoromethylbiphenyl-2-carbonyl)amino}phenyl)butyryloxy]benzoic acid thiophen-3-ylmethyl ester] |
| 3 | 0 | 42 | 0 | 100 | 103 | Cc1cccc(COC(=O)c2ccc(OC(=O)CCCc3ccc(NC(=O)c4ccccc4-c4ccc(C(F)(F)F)cc4)c(C(=O)N(C)C)c3)cc2)n1 [Compound 1-101, 4-[4-(3-dimethylcarbamoyl-4-{(4'-trifluoromethylbiphenyl-2-carbonyl)amino}phenyl)butyryloxy]benzoic acid 6-methylpyridin-2-ylmethyl ester] |
| 14 | 5 | 78 | 17 | 101 | 96 | CN(C)C(=O)c1cc(CCCC(=O)Oc2ccc(-c3nnn(CC(=O)OCc4ccccc4)n3)cc2)ccc1NC(=O)c1ccccc1-c1ccc(C(F)(F)F)cc1 [Compound 1-104, 4-(3-dimethylcarbamoyl-4-{(4'-trifluoromethylbiphenyl-2-carbonyl)amino}phenyl)butyric acid 4-(2-benzyloxycarbonylmethyl-2H-tetrazol-5-yl)phenyl ester] |
| 3 | 0 | 84 | 43 | 101 | 101 | CN(C)C(=O)Cn1nnc(-c2ccc(OC(=O)CCCc3ccc(NC(=O)c4ccccc4-c4ccc(C(F)(F)F)cc4)c(C(=O)N(C)C)c3)cc2)n1 [Compound 1-105, 4-(3-dimethylcarbamoyl-4-{(4'-trifluoromethylbiphenyl-2-carbonyl)amino}phenyl)butyric acid 4-(2-dimethylcarbamoylmethyl-2H-tetrazol-5-yl)phenyl ester] |
| 13 | 0 | 49 | 0 | 98 | 99 | CC(OC(=O)c1ccc(OC(=O)CCCc2ccc(NC(=O)c3ccccc3-c3ccc(C(F)(F)F)cc3)c(C(=O)N(C)C)c2)cc1)c1ccccc1 (stereo not drawn) [Compound 1-106, 4-[4-(3-dimethylcarbamoyl-4-{(4'-trifluoromethylbiphenyl-2-carbonyl)amino}phenyl)butyryloxy]benzoic acid 1-phenylethyl ester] |
| 11 | 3 | 63 | 2 | 98 | 99 | CN(C)C(=O)c1cc(CCCC(=O)Oc2ccc(C(=O)OC3CCc4ccccc43)cc2)ccc1NC(=O)c1ccccc1-c1ccc(C(F)(F)F)cc1 (stereo not drawn) [Compound 1-107, 4-[4-(3-dimethylcarbamoyl-4-{(4'-trifluoromethylbiphenyl-2-carbonyl)amino}phenyl)butyryloxy]benzoic acid indan-1-yl ester] |
| 25 | 5 | 89 | 17 | 98 | 98 | CN(C)C(=O)c1cc(CCCC(=O)Oc2ccc(C(=O)OC3CCCc4ccccc43)cc2)ccc1NC(=O)c1ccccc1-c1ccc(C(F)(F)F)cc1 (stereo not drawn) [Compound 1-108, 4-[4-(3-dimethylcarbamoyl-4-{(4'-trifluoromethylbiphenyl-2-carbonyl)amino}phenyl)butyryloxy]benzoic acid 1,2,3,4-tetrahydronaphthalen-1-yl ester] |

Further lines, the molecule ahead of its results:

| SMILES | remaining at 10 min [1] [%] | remaining at 1 h [1] [%] | remaining at 10 min [2] [%] | remaining at 1 h [2] [%] | remaining at 10 min [3] [%] | remaining at 1 h [3] [%] |
| --- | --- | --- | --- | --- | --- | --- |
| Cc1cccc(COC(=O)c2ccc(OC(=O)CCCc3ccc(NC(=O)c4ccc(C)nc4-c4ccc(C(F)(F)F)cc4)c(C(=O)N(C)C)c3)cc2)n1 [Compound 1-100, 4-[4-(3-dimethylcarbamoyl-4-([6-methyl-2-(4-trifluoromethylphenyl)pyridine-3-carbonyl]amino}phenyl)butyryloxy]benzoic acid 6-methylpyridin-2-ylmethyl ester] | 0 | 0 | 12 | 0 | 102 | 102 |
| CC(C)OC(=O)COC(=O)c1ccc(OC(=O)CCCc2ccc(NC(=O)c3ccccc3-c3ccc(C(F)(F)F)cc3)c(C(=O)N(C)C)c2)cc1 [Compound 1-102, 4-[4-(3-dimethylcarbamoyl-4-{(4'-trifluoromethylbiphenyl-2-carbonyl)amino}phenyl)butyryloxy]benzoic acid isopropoxycarbonylmethyl ester] | 0 | 0 | 46 | 0 | 98 | 101 |
| CN(C)C(=O)c1cc(CCCC(=O)Oc2ccc(C(=O)OCc3ccc(C(=O)OC(C)(C)C)cc3)cc2)ccc1NC(=O)c1ccccc1-c1ccc(C(F)(F)F)cc1 [Compound 1-103, 4-[4-(3-dimethylcarbamoyl-4-{(4'-trifluoromethylbiphenyl-2-carbonyl)amino}phenyl)butyryloxy]benzoic acid 4-(t-butoxycarbonyl)benzyl ester] | 48 | 12 | 99 | 55 | 105 | 111 |
| CC(=O)N1CCC(OC(=O)c2ccc(OC(=O)CCCc3ccc(NC(=O)c4ccccc4-c4ccc(C(F)(F)F)cc4)c(C(=O)N(C)C)c3)cc2)CC1 [Compound 1-109, 4-[4-(3-dimethylcarbamoyl-4-{(4'-trifluoromethylbiphenyl-2-carbonyl)amino}phenyl)butyryloxy]benzoic acid 1-acetylpiperidin-4-yl ester] | 0 | 0 | 50 | 3 | 99 | 99 |
| COC(=O)c1cc(C)c(OC(=O)CCCc2ccc(NC(=O)c3ccc(C)nc3-c3ccc(C(F)(F)F)cc3)c(C(=O)N(C)C)c2)c(C(=O)OC)c1 [Compound 1-110, 4-[4-(3-dimethylcarbamoyl-4-{[6-methyl-2-(4-trifluoromethylphenyl)pyridine-3-carbonyl]amino}phenyl)butyryloxy]-5-methylisophthalic acid dimethyl ester] | 5 | 0 | 26 | 0 | 99 | 102 |
| COC(=O)c1cc(C(=O)OC(C)C)cc(C)c1OC(=O)CCCc1ccc(NC(=O)c2ccc(C)nc2-c2ccc(C(F)(F)F)cc2)c(C(=O)N(C)C)c1 [Compound 1-111, 4-[4-(3-dimethylcarbamoyl-4-{[6-methyl-2-(4-trifluoromethylphenyl)pyridine-3-carbonyl]amino}phenyl)butyryloxy]-5-methylisophthalic acid 1-isopropyl ester 3-methyl ester] | 41 | 3 | 30 | 0 | 99 | 99 |
| CCOC(=O)c1cc(C)c(OC(=O)CCCc2ccc(NC(=O)c3ccc(C)nc3-c3ccc(C(F)(F)F)cc3)c(C(=O)N(C)C)c2)c(Cl)c1 [Compound 1-112, 3-chloro-4-[4-(3-dimethylcarbamoyl-4-{[6-methyl-2-(4-trifluoromethylphenyl)pyridine-3-carbonyl]amino}phenyl)butyryloxy]-5-methylbenzoic acid ethyl ester] | 27 | 8 | 48 | 0 | 99 | 100 |
| COc1cc(C(=O)OCC(=O)N(C)C)cc(Cl)c1OC(=O)CCCc1ccc(NC(=O)c2ccc(C)nc2-c2ccc(C(F)(F)F)cc2)c(C(=O)N(C)C)c1 [Compound 1-113, 3-chloro-4-[4-(3-dimethylcarbamoyl-4-{[6-methyl-2-(4-trifluoromethylphenyl)pyridine-3-carbonyl]amino}phenyl)butyryloxy]-5-methoxybenzoic acid dimethylcarbamoylmethyl ester] | 8 | 2 | 1 | 0 | 103 | 104 |
